The record followed here is ChEMBL document CHEMBL1132968, “Substituent effects on the antibacterial activity of nitrogen-carbon-linked (azolylphenyl)oxazolidinones with expanded activity against the fastidious gram-negative organisms Haemophilus influenzae and Moraxella catarrhalis” (2000).

As a reminder, the ED50 is the midpoint of the dose-response relation.

Values after ≈ are worked out from the molar mass of the structure shown. Some results are limits rather than exact numbers.

Common to all, as to assay type: functional
Test [1] concerns Staphylococcus epidermidis. The experiment in a line: Inhibitory activity against Methicillin-resistant Staphylococcus epidermidis UC12084.
Test [2] has as its system Staphylococcus aureus. The experiment in a line: Inhibitory activity against Methicillin-resistant Staphylococcus aureus UC6685.
Test [3] concerns Staphylococcus aureus. As to the kind of experiment: Inhibitory activity against Methicillin-susceptible Staphylococcus aureus UC9213.
Test [4] deals with Streptococcus pneumoniae. As to the kind of experiment: Inhibitory activity against Streptococcus pneumoniae UC9912.
The subject of test [5] is Haemophilus influenzae. The experiment in a line: Inhibitory activity against Haemophilus influenzae UC30063.
Test [6] relates to Moraxella catarrhalis. The experiment in a line: Inhibitory activity against Moraxella catarrhalis UC30610.
Test [7] has as its system Mus musculus. As to the kind of experiment: Dose required to cure 50% of Staphylococcus aureus infected mice in the presence of eperezolid when administered orally; value ranges from 1.8-4.4. The note with it: po.
Test [8] has as its system Enterococcus faecalis. As to the kind of experiment: Inhibitory activity against Enterococcus faecalis UC9217.
The test system of test [9] is Mus musculus. The experiment in a line: Dose required to cure 50% of Staphylococcus aureus infected mice when administered orally. The note with it: po.
For test [10], the system named is Mus musculus. The experiment in a line: Dose required to cure 50% of Staphylococcus aureus infected mice when administered orally administered. The following applies: po.
The test system of test [11] is Mus musculus. As to the kind of experiment: Dose required to cure 50% of Staphylococcus aureus infected mice in the presence of eperezolid when administered orally;vlaue ranges from 1.9-6.6. The following applies: po.
In test [12] the test system is Mus musculus. As to the kind of experiment: Dose required to cure 50% of Staphylococcus aureus infected mice in the presence of eperezolid when administered orally. The following applies: po.
In test [13] the test system is Mus musculus. The experiment in a line: Dose required to cure 50% of Staphylococcus aureus infected mice in the presence of vancomycin when orally administered. The following applies: po.
Test [14] relates to Mus musculus. As to the kind of experiment: Dose required to cure 50% of Staphylococcus aureus infected mice when orally administered; value ranges from 7.9-32.5. The following applies: po.
For test [15], the system named is Mus musculus. As to the kind of experiment: Dose required to cure 50% of Staphylococcus aureus infected mice in the presence of eperezolid when administered orally; value ranges from 4.0-26.7. The following applies: po.
Test [16] concerns Mus musculus. As to the kind of experiment: Dose required to cure 50% of Staphylococcus aureus infected mice when administered orally;. The following applies: po.
Test [17] has as its system Mus musculus. As to the kind of experiment: Dose(orally administered) required to cure 50% of Staphylococcus aureus infected mice in the presence of eperezolid when orally administered; value ranges from 2.2-6.1. The note with it: po.
The test system of test [18] is Mus musculus. As to the kind of experiment: Dose required to cure 50% of Staphylococcus aureus infected mice when orally administered; value ranges from 4.3-13.3. The following applies: po.
Test [19] relates to Mus musculus. As to the kind of experiment: Dose required to cure 50% of Staphylococcus aureus infected mice in the presence of vancomycin when administered orally; value ranges from 1.43-3.5. The following applies: po.
For test [20], the system named is Mus musculus. As to the kind of experiment: Dose required to cure 50% of Staphylococcus aureus infected mice when administered orally; value ranges from 5.5-22.1. The following applies: po.
Test [21] relates to Mus musculus. The experiment in a line: Dose required to cure 50% of Staphylococcus aureus infected mice when administered orally. The note with it: po.
The subject of test [22] is Mus musculus. As to the kind of experiment: Dose(orally administered) required to cure 50% of Staphylococcus aureus infected mice in the presence of eperezolid when administered orally; value ranges from 0.8-2.3. The note with it: po.
For test [23], the system named is Mus musculus. As to the kind of experiment: Dose required to cure 50% of Staphylococcus aureus infected mice when administered orally; value ranges from 1.4-3.8. The note with it: po.
In test [24] the test system is Mus musculus. The experiment in a line: Dose required to cure 50% of Staphylococcus aureus infected mice in the presence of vancomycin when administered orally; value ranges from 2.5-6.4. The note with it: po.
In test [25] the test system is Mus musculus. The experiment in a line: Dose required to cure 50% of Staphylococcus aureus infected mice when administered orally; value ranges from 2.9-8.5. The following applies: po.

As for `COC(=O)c1ccn(-c2ccc(N3C[C@H](CNC(C)=O)OC3=O)cc2F)c1`, the MIC in [1] was 0.5 µg/mL (≈ 1.33 µM); in test [2], 2 µg/mL (≈ 5.33 µM); in [3], 2 µg/mL (≈ 5.33 µM); in test [4], 0.25 µg/mL (≈ 0.666 µM); in test [5] it was above 16 µg/mL; in [6] it was 16 µg/mL (≈ 42.6 µM). The MIC in test [8] was determined as 1 µg/mL (≈ 2.66 µM). Besides, the ED50 in [7] is 2.9 mg/kg/day; in test [9], above 20 mg/kg/day.

With `CO/N=C/c1cn(-c2ccc(N3C[C@H](CNC(C)=O)OC3=O)cc2F)nn1`, the MIC in test [1] is 1 µg/mL (≈ 2.66 µM); in test [2] it was 2 µg/mL (≈ 5.31 µM); in [3], 4 µg/mL (≈ 10.6 µM); in [4], 0.5 µg/mL (≈ 1.33 µM); in [5], above 16 µg/mL; in [6] it was 16 µg/mL (≈ 42.5 µM). The same compound registered an MIC in [8] of 4 µg/mL (≈ 10.6 µM). Further, the ED50 in test [10] was determined as 8.6 mg/kg/day; in test [11] it was 3.8 mg/kg/day.

`COC(=O)c1cn(-c2ccc(N3C[C@H](CNC(C)=O)OC3=O)cc2F)nn1`: the MIC was 2 µg/mL (≈ 5.3 µM) in test [1]; 4 µg/mL (≈ 10.6 µM) in [2]; 4 µg/mL (≈ 10.6 µM) in test [3]; 1 µg/mL (≈ 2.65 µM) in test [4]; above 16 µg/mL in test [5]; 16 µg/mL (≈ 42.4 µM) in test [6]. Besides, the MIC in test [8] amounted to 4 µg/mL (≈ 10.6 µM). Moreover, the ED50 in [9] is above 20 mg/kg/day; in [12] it was 15.3 mg/kg/day.

Regarding `CC(=O)NC[C@H]1CN(c2ccc(-n3cccc3)c(F)c2)C(=O)O1`, the MIC is at most 0.5 µg/mL in test [1]; 1 µg/mL (≈ 3.15 µM) in test [2]; 1 µg/mL (≈ 3.15 µM) in test [3]; at most 0.5 µg/mL in test [4]; 4 µg/mL (≈ 12.6 µM) in test [5]; 2 µg/mL (≈ 6.3 µM) in [6]. The MIC in test [8] turned out to be 1 µg/mL (≈ 3.15 µM). For the same compound, the ED50 in [13] is 2.7 mg/kg/day; in [14], 13.2 mg/kg/day.

Turning to `CC(=O)NC[C@H]1CN(c2ccc(-n3cnnn3)c(F)c2)C(=O)O1`, the MIC in test [1] worked out at 2 µg/mL (≈ 6.24 µM); in [2], 2 µg/mL (≈ 6.24 µM); in [3], 4 µg/mL (≈ 12.5 µM); in [4] it was 1 µg/mL (≈ 3.12 µM); in test [5], 16 µg/mL (≈ 50 µM); in test [6], 16 µg/mL (≈ 50 µM). This compound also came in with an MIC in test [8] of 2 µg/mL (≈ 6.24 µM). For the same compound, the ED50 is 7.8 mg/kg/day in test [15] and above 20 mg/kg/day in test [16].

In the case of `CO/N=C\c1ccn(-c2ccc(N3C[C@H](CNC(C)=O)OC3=O)cc2F)c1`, the MIC in [1] worked out at 0.5 µg/mL (≈ 1.34 µM); in test [2], 1 µg/mL (≈ 2.67 µM); in [3], 1 µg/mL (≈ 2.67 µM); in test [4] it was 0.25 µg/mL (≈ 0.668 µM); in [5], 16 µg/mL (≈ 42.7 µM); in test [6] it was 16 µg/mL (≈ 42.7 µM). The same compound came in with an MIC in [8] of 1 µg/mL (≈ 2.67 µM). In addition, the ED50 in test [17] was 3.5 mg/kg/day; in [18], 7.3 mg/kg/day.

For the compound `CC(=O)NC[C@H]1CN(c2ccc(-n3ccnc3)c(F)c2)C(=O)O1`, the MIC in test [1] is at most 0.5 µg/mL; in test [2], 1 µg/mL (≈ 3.14 µM); in test [3], 2 µg/mL (≈ 6.28 µM); in test [4], at most 0.5 µg/mL; in [5], 8 µg/mL (≈ 25.1 µM); in test [6], 4 µg/mL (≈ 12.6 µM). In [8], the MIC was determined as 2 µg/mL (≈ 6.28 µM). Also, the ED50 in test [19] came to 2.2 mg/kg/day; in test [20] it was 9.5 mg/kg/day.

As to `CC(=O)NC[C@H]1CN(c2ccc(-n3ccc(CCCNS(C)(=O)=O)c3)c(F)c2)C(=O)O1`, the MIC in [1] was 2 µg/mL (≈ 4.42 µM); in test [2], 4 µg/mL (≈ 8.84 µM); in test [3] it was 8 µg/mL (≈ 17.7 µM); in [4], 0.5 µg/mL (≈ 1.1 µM); in test [5], above 16 µg/mL; in test [6], 8 µg/mL (≈ 17.7 µM). In test [8], the MIC turned out to be 2 µg/mL (≈ 4.42 µM). Moreover, the ED50 in test [21] is above 20 mg/kg/day; in [22] it was 1.8 mg/kg/day.

For the compound `CC(=O)NC[C@H]1CN(c2ccc(N3CCN(C(=O)CO)CC3)c(F)c2)C(=O)O1` [EPEREZOLID], the results for the ED50 in [23] and in test [24] were 1.9 mg/kg/day and 3.9 mg/kg/day, respectively.

On to `CC(=O)NC[C@H]1CN(c2ccc(N3CCOCC3)c(F)c2)C(=O)O1` [LINEZOLID], for which the 50% effective dose (ED50) in test [25] came to 5.6 mg/kg/day; in test [24] it was 3.9 mg/kg/day.
